# Reference: US20250340552A1, “COMPOUNDS, COMPOSITIONS AND METHODS OF TREATING DISORDERS” (HOTSPOT THERAPEUTICS, INC., priority 2022, published 2025)
# Where two headings read alike, the source gives them in different places.
# Molecular target: T1, Cbl-B (Homo sapiens, UniProt Q13191)
# T1 construct: MSD-Based Assay for Degradation of Cbl-B in THP-1 Cells; endogenous in cells; host or cells: THP-1 (title) / Jurkat (protocol text)
# Assay: MSD-based assay for degradation of Cbl-B in THP-1 cells
# Assay type: cell-based
# In short: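 Reported Dmax bins are A >70%, B 50–70%, C 30–50% and D <30%, from an electrochemiluminescence (MSD) sandwich assay of Cbl-B in cell lysates. THP-1 cells were exposed to compounds for 24 hours before lysis.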
# [1] = Cbl-B degradation, Jurkat cells seeded (heading: THP-1 cells), 24 hours incubation, MSD readout
# [2] = Cbl-B degradation, Jurkat cells seeded (heading: THP-1 cells), 24 hours incubation, MSD readout, read-out: Dmax
# T1 sequence (Q13191 whole entry): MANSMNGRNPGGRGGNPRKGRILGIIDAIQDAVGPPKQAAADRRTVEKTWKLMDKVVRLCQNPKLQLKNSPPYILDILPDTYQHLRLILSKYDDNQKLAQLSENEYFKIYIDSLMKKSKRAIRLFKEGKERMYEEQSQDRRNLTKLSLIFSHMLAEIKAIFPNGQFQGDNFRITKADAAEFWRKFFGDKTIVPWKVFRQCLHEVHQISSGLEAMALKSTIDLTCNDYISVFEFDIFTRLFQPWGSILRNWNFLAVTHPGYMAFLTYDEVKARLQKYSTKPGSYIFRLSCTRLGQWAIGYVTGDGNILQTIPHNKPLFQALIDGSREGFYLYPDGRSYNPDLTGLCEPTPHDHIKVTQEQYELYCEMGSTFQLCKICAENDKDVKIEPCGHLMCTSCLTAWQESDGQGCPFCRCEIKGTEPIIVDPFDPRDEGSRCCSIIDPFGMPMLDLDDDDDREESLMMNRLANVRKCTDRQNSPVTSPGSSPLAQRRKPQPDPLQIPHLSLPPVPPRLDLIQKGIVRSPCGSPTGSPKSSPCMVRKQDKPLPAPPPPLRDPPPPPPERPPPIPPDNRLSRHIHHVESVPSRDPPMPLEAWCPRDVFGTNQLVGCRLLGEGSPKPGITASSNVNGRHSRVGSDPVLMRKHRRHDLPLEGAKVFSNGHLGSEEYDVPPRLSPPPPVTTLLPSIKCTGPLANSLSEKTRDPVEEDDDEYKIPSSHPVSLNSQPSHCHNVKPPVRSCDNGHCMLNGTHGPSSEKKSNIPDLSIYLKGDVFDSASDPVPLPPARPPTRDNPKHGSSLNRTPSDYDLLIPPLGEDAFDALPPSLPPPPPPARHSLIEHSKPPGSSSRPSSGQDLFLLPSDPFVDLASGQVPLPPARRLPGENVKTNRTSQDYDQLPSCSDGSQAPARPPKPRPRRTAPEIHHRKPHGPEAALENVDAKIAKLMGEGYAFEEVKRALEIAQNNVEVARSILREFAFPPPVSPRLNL
SMILES,DC50 [1],Dmax [2],Dmax (THP-1)
CN(CC1CCN(Cc2cc(C(F)(F)F)c3cn(-c4cccc(C5(Cc6nncn6C)COC5)c4)c(=O)n3c2)CC1)C(=O)c1ccc(N2CCN(c3ccc4c(c3)CN([C@@H]3CCC(=O)NC3=O)C4=O)CC2)cc1 [Compound 165],1000 to 10000 nM,30 to 50%,
CN(CC1CCN(Cc2cc(C(F)(F)F)c3cn(-c4cccc(C5(Cc6nncn6C)COC5)c4)c(=O)n3c2)CC1)C(=O)c1ccc(N2CCN(c3ccc4c(c3)CN([C@H]3CCC(=O)NC3=O)C4=O)CC2)cc1 [Compound 166],< 30 nM,> 70%,
CO[C@H]1C[C@@](c2cccc(-n3cc4c(C(F)(F)F)cc(CN5CCC(CN(C)C(=O)c6ccc(N7CCN(c8ccc9c(c8)CN([C@@H]8CCC(=O)NC8=O)C9=O)CC7)cc6)CC5)cn4c3=O)c2)(c2nncn2C)C1 [Compound 167],1000 to 10000 nM,< 30%,
CO[C@H]1C[C@](c2cccc(-n3cc4c(C(F)(F)F)cc(CN5CCC(CN(C)C(=O)c6ccc(N7CCN(c8ccc9c(c8)CN([C@@H]8CCC(=O)NC8=O)C9=O)CC7)cc6)CC5)cn4c3=O)c2)(c2nncn2C)C1 [Compound 168],> 10000 nM,< 30%,
CO[C@H]1C[C@@](c2cccc(-n3cc4c(C(F)(F)F)cc(CN5CCC(CN(C)C(=O)c6ccc(N7CCN(c8ccc9c(c8)CN([C@H]8CCC(=O)NC8=O)C9=O)CC7)cc6)CC5)cn4c3=O)c2)(c2nncn2C)C1 [Compound 169],30 to 300 nM,30 to 50%,
Cn1cnnc1[C@@H](c1cccc(-n2cc3c(C(F)(F)F)cc(CN4CCC(CC(=O)N5CCC(CC6CCN(c7ccc8c(c7)CN([C@@H]7CCC(=O)NC7=O)C8=O)CC6)CC5)CC4)cn3c2=O)c1)C1CCC1 [Compound 175],> 10000 nM,,< 30%
Cn1cnnc1[C@@H](c1cccc(-n2cc3c(C(F)(F)F)cc(CN4CCC(CC(=O)N5CCC(CC6CCN(c7ccc8c(c7)CN([C@H]7CCC(=O)NC7=O)C8=O)CC6)CC5)CC4)cn3c2=O)c1)C1CCC1 [Compound 176],< 30 nM,> 70%,
Cn1cnnc1[C@@H](c1cccc(-n2cc3c(C(F)(F)F)cc(CN4CCC(CC(=O)N5CCC(Cc6ccc(-c7ccc8c(c7)CN([C@@H]7CCC(=O)NC7=O)C8=O)cc6)CC5)CC4)cn3c2=O)c1)C1CCC1 [Compound 179],300 to 1000 nM,,30 to 50%
Cn1cnnc1[C@@H](c1cccc(-n2cc3c(C(F)(F)F)cc(CN4CCC(CC(=O)N5CCC(Cc6ccc(-c7ccc8c(c7)CN([C@H]7CCC(=O)NC7=O)C8=O)cc6)CC5)CC4)cn3c2=O)c1)C1CCC1 [Compound 180],< 30 nM,,> 70%
Cn1cnnc1[C@@H](c1cccc(-n2cc3c(C(F)(F)F)cc(CN4CCC(CC(=O)N5CCC(c6ccc(-c7ccc8c(c7)CN([C@@H]7CCC(=O)NC7=O)C8=O)cc6)CC5)CC4)cn3c2=O)c1)C1CCC1 [Compound 181],300 to 1000 nM,,30 to 50%
Cn1cnnc1[C@@H](c1cccc(-n2cc3c(C(F)(F)F)cc(CN4CCC(CC(=O)N5CCC(c6ccc(-c7ccc8c(c7)CN([C@H]7CCC(=O)NC7=O)C8=O)cc6)CC5)CC4)cn3c2=O)c1)C1CCC1 [Compound 182],< 30 nM,30 to 50%,
CN(CC1CCN(Cc2cc3c(c(C(F)(F)F)c2)CN(c2cccc([C@H](c4nncn4C)C4CCC4)c2)C3=O)CC1)C(=O)c1ccc(N2CCN(c3ccc4c(c3)CN([C@@H]3CCC(=O)NC3=O)C4=O)CC2)cc1 [Compound 183],30 to 300 nM,50 to 70%,
CN(CC1CCN(Cc2cc3c(c(C(F)(F)F)c2)CN(c2cccc([C@H](c4nncn4C)C4CCC4)c2)C3=O)CC1)C(=O)c1ccc(N2CCN(c3ccc4c(c3)CN([C@H]3CCC(=O)NC3=O)C4=O)CC2)cc1 [Compound 184],< 30 nM,> 70%,
Cn1cnnc1[C@@H](c1cccc(N2Cc3c(cc(CN4CCC[C@H](OCc5ccc(CC6CCN(c7ccc8c(c7)CN([C@H]7CCC(=O)NC7=O)C8=O)CC6)cc5)C4)cc3C(F)(F)F)C2=O)c1)C1CCC1 [Compound 190],300 to 1000 nM,30 to 50%,
Cn1cnnc1CC1(c2cccc(-n3cc4c(C(F)(F)F)cc(CN5CCC(COCc6ccc(CN7CCN(c8ccc9c(c8)CN([C@@H]8CCC(=O)NC8=O)C9=O)CC7)cc6)CC5)cn4c3=O)c2)COC1 [Compound 215],1000 to 10000 nM,< 30%,
CO[C@H]1C[C@](c2cccc(-n3cc4c(C(F)(F)F)cc(CN5CCC(COCc6ccc(CN7CCN(c8ccc9c(c8)CN([C@@H]8CCC(=O)NC8=O)C9=O)CC7)cc6)CC5)cn4c3=O)c2)(c2nncn2C)C1 [Compound 223],30 to 300 nM,30 to 50%,
Cn1cnnc1[C@@H](c1cccc(-n2cc3c(C(F)(F)F)cc(CN4CCC[C@H](COCc5ccc(CN6CCN(c7ccc8c(c7)CN([C@@H]7CCC(=O)NC7=O)C8=O)CC6)cc5)C4)cn3c2=O)c1)C1CCC1 [Compound 235],,,30 to 50%
Cn1cnnc1[C@@H](c1cccc(-n2cc3c(C(F)(F)F)cc(CN4CCC(OC(=O)N5CCC(CN6CCN(c7ccc8c(c7)CN([C@@H]7CCC(=O)NC7=O)C8=O)CC6)CC5)CC4)cn3c2=O)c1)C1CCC1 [Compound 237],30 to 300 nM,,50 to 70%
Cn1cnnc1[C@@H](c1cccc(-n2cc3c(C(F)(F)F)cc(CN4CCC(OC(=O)N5CCC(CN6CCN(c7ccc8c(c7)CN([C@H]7CCC(=O)NC7=O)C8=O)CC6)CC5)CC4)cn3c2=O)c1)C1CCC1 [Compound 238],< 30 nM,,> 70%
Cn1cnnc1CC1(c2cccc(-n3cc4c(C(F)(F)F)cc(CN5CCC(CC(=O)N6CCC(CN7CCN(c8ccc9c(c8)CN([C@@H]8CCC(=O)NC8=O)C9=O)CC7)CC6)CC5)cn4c3=O)c2)COC1 [Compound 255],30 to 300 nM,> 70%,
Cn1cnnc1CC1(c2cccc(-n3cc4c(C(F)(F)F)cc(CN5CCC(CC(=O)N6CCC(CN7CCN(c8ccc9c(c8)CN([C@H]8CCC(=O)NC8=O)C9=O)CC7)CC6)CC5)cn4c3=O)c2)COC1 [Compound 256],< 30 nM,,> 70%
Cn1cnnc1CC1(c2cccc(-n3cc4c(C(F)(F)F)cc(CN5CCC(C6CCN(C(=O)c7ccc(N8CCN(c9ccc%10c(c9)CN([C@@H]9CCC(=O)NC9=O)C%10=O)CC8)cc7)CC6)CC5)cn4c3=O)c2)COC1 [Compound 261],< 30 nM,,> 70%
Cn1cnnc1CC1(c2cccc(-n3cc4c(C(F)(F)F)cc(CN5CCC(C6CCN(C(=O)c7ccc(N8CCN(c9ccc%10c(c9)CN([C@H]9CCC(=O)NC9=O)C%10=O)CC8)cc7)CC6)CC5)cn4c3=O)c2)COC1 [Compound 262],< 30 nM,,> 70%

# Further lines, with some results ahead:
DC50 [1],Dmax [2],SMILES,Dmax (THP-1)
< 30 nM,> 70%,Cn1cnnc1CC1(c2cccc(-n3cc4c(C(F)(F)F)cc(CN5CCN(CCc6ccc(N7CCN(c8ccc9c(c8)CN([C@@H]8CCC(=O)NC8=O)C9=O)CC7)cc6)CC5)cn4c3=O)c2)COC1 [Compound 203],
< 30 nM,> 70%,Cn1cnnc1CC1(c2cccc(-n3cc4c(C(F)(F)F)cc(CN5CCC(COCc6ccc(CN7CCN(c8ccc9c(c8)CN([C@H]8CCC(=O)NC8=O)C9=O)CC7)cc6)CC5)cn4c3=O)c2)COC1 [Compound 216],
300 to 1000 nM,30 to 50%,CO[C@H]1C[C@](c2cccc(-n3cc4c(C(F)(F)F)cc(CN5CCC(OCCOCc6ccc(CN7CCN(c8ccc9c(c8)CN([C@@H]8CCC(=O)NC8=O)C9=O)CC7)cc6)CC5)cn4c3=O)c2)(c2nncn2C)C1 [Compound 221],
< 30 nM,> 70%,CO[C@H]1C[C@](c2cccc(-n3cc4c(C(F)(F)F)cc(CN5CCC(OCCOCc6ccc(CN7CCN(c8ccc9c(c8)CN([C@H]8CCC(=O)NC8=O)C9=O)CC7)cc6)CC5)cn4c3=O)c2)(c2nncn2C)C1 [Compound 222],
< 30 nM,50 to 70%,CO[C@H]1C[C@](c2cccc(-n3cc4c(C(F)(F)F)cc(CN5CCC(COCc6ccc(CN7CCN(c8ccc9c(c8)CN([C@H]8CCC(=O)NC8=O)C9=O)CC7)cc6)CC5)cn4c3=O)c2)(c2nncn2C)C1 [Compound 224],
30 to 300 nM,50 to 70%,Cn1cnnc1[C@@H](c1cccc(-n2cc3c(C(F)(F)F)cc(CN4CCN(CCc5ccc(C6CCN(c7ccc8c(c7)CN([C@@H]7CCC(=O)NC7=O)C8=O)CC6)cc5)CC4)cn3c2=O)c1)C1CCC1 [Compound 227],
< 30 nM,,Cn1cnnc1CC1(c2cccc(-n3cc4c(C(F)(F)F)cc(CN5CCN(CCc6ccc(C7CCN(c8ccc9c(c8)CN([C@H]8CCC(=O)NC8=O)C9=O)CC7)cc6)CC5)cn4c3=O)c2)COC1 [Compound 230],
< 30 nM,50 to 70%,CN(CC1CCN(Cc2cc(C(F)(F)F)c3cn(-c4cccc(C5(Cc6nncn6C)COC5)c4)c(=O)n3c2)CC1)C(=O)c1ccc(C2CCN(c3ccc4c(c3)CN([C@@H]3CCC(=O)NC3=O)C4=O)CC2)cc1 [Compound 241],
< 30 nM,> 70%,CN(CC1CCN(Cc2cc(C(F)(F)F)c3cn(-c4cccc(C5(Cc6nncn6C)COC5)c4)c(=O)n3c2)CC1)C(=O)c1ccc(C2CCN(c3ccc4c(c3)CN([C@H]3CCC(=O)NC3=O)C4=O)CC2)cc1 [Compound 242],
30 to 300 nM,> 70%,CO[C@H]1C[C@](c2cccc(-n3cc4c(C(F)(F)F)cc(CN5CCN(CCc6ccc(N7CCN(c8ccc9c(c8)CN([C@@H]8CCC(=O)NC8=O)C9=O)CC7)cc6)CC5)cn4c3=O)c2)(c2nncn2C)C1 [Compound 251],
< 30 nM,> 70%,CO[C@H]1C[C@](c2cccc(-n3cc4c(C(F)(F)F)cc(CN5CCN(CCc6ccc(N7CCN(c8ccc9c(c8)CN([C@H]8CCC(=O)NC8=O)C9=O)CC7)cc6)CC5)cn4c3=O)c2)(c2nncn2C)C1 [Compound 252],
30 to 300 nM,30 to 50%,Cn1cnnc1CC1(c2cccc(-n3cc4c(C(F)(F)F)cc(CN5CCC(CCN6CCC(CC7CCN(c8ccc9c(c8)CN([C@H]8CCC(=O)NC8=O)C9=O)CC7)CC6)CC5)cn4c3=O)c2)COC1 [Compound 260],
